Data as given in patent publication US7880007B2, “Bicyclic substituted phenyl piperidine modulators of muscarinic receptors” (Vertex Pharmaceuticals Incorporated, priority 2004, dated 2011).

Key:
Type in all cases: cell-based
M2 muscarinic receptor = molecular target: T1, M2 muscarinic receptor (Homo sapiens, UniProt P08172); test: Functional mobilization of intracellular calcium (FLIPR), M2-CHO cells; conditions: for Emax: 100% efficacy = maximum response obtained with the Carbachol control; for M2 Activity: M2-CHO cells, calcium mobilization (FLIPR)
T1 construct: expressed in transfected cells; host or cells: CHO (M2-CHO)
T1 sequence (P08172 1-466): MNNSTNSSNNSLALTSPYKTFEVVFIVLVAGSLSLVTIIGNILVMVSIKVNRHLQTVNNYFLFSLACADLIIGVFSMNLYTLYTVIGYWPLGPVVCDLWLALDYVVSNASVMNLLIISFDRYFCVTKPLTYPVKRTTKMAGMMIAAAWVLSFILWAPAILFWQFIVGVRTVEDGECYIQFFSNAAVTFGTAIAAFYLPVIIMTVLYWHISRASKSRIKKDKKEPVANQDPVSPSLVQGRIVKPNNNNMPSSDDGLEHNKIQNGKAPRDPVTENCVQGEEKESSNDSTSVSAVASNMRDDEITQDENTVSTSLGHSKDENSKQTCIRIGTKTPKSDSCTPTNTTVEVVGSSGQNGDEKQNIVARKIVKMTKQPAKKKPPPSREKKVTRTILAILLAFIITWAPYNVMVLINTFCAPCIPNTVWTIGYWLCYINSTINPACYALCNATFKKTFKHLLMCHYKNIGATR
Summary of the method: (§1)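 FLIPR fluorescence (ex 488, em 540 nm) recorded 60 sec after compound addition to dye-loaded CHO cells. Agonist mode: compound alone. Antagonist mode: 15 min compound pre-incubation, then carbachol at EC80, or co-application. Efficacy expressed as % of maximal carbachol response.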

M3 muscarinic receptor = molecular target: T2, M3 muscarinic receptor (Homo sapiens, UniProt P20309); test: Functional mobilization of intracellular calcium (FLIPR), M3-CHO cells; conditions: for Emax: 100% efficacy = maximum response obtained with the Carbachol control; for M3 Activity: M3-CHO cells, calcium mobilization (FLIPR)
T2 construct: expressed in transfected cells; host or cells: CHO (M3-CHO)
T2 sequence (P20309 whole entry): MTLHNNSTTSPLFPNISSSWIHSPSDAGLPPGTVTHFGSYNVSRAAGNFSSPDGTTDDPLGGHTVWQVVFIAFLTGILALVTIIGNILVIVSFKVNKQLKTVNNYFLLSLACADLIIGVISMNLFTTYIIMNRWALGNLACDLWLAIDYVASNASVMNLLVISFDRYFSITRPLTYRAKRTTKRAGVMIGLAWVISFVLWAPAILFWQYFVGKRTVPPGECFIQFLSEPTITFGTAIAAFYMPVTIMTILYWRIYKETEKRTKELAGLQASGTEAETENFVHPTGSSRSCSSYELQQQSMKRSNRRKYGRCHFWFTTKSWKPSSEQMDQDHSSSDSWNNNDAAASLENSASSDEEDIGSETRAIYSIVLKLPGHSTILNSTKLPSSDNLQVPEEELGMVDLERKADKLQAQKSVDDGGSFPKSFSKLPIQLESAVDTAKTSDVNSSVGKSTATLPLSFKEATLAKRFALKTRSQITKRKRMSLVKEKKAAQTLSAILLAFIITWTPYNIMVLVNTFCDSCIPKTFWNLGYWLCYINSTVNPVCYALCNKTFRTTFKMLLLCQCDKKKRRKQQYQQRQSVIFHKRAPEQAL
Summary of the method: as §1

M4 muscarinic receptor = molecular target: T3, M4 muscarinic receptor (Homo sapiens, UniProt P08173); test: Functional mobilization of intracellular calcium (FLIPR), M4-CHO cells; conditions: for Emax: 100% efficacy = maximum response obtained with the Carbachol control; for M4 Activity: M4-CHO cells, calcium mobilization (FLIPR)
T3 construct: expressed in transfected cells; host or cells: CHO (M4-CHO)
T3 sequence (P08173 1-479): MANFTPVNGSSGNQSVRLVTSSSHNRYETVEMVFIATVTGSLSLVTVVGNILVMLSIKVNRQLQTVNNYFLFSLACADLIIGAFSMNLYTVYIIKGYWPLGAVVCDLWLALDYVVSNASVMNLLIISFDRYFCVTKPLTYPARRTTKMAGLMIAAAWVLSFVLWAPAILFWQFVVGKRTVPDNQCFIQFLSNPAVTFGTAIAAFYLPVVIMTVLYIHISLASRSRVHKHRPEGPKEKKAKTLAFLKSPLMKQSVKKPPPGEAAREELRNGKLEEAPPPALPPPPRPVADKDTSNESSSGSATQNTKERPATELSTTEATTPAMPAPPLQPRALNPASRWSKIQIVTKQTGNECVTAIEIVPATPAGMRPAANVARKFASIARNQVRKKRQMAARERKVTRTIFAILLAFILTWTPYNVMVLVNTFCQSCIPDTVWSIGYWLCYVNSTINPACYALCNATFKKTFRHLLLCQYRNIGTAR
Summary of the method: as §1

M1 muscarinic receptor = molecular target: T4, M1 muscarinic receptor (Homo sapiens, UniProt P11229); test: Functional mobilization of intracellular calcium (FLIPR), M1-CHO cells; conditions: for Emax: 100% efficacy = maximum response obtained with the Carbachol control; for M1 Activity: M1-CHO cells, calcium mobilization (FLIPR)
T4 construct: expressed in transfected cells; host or cells: CHO (M1-CHO)
T4 sequence (P11229 1-460): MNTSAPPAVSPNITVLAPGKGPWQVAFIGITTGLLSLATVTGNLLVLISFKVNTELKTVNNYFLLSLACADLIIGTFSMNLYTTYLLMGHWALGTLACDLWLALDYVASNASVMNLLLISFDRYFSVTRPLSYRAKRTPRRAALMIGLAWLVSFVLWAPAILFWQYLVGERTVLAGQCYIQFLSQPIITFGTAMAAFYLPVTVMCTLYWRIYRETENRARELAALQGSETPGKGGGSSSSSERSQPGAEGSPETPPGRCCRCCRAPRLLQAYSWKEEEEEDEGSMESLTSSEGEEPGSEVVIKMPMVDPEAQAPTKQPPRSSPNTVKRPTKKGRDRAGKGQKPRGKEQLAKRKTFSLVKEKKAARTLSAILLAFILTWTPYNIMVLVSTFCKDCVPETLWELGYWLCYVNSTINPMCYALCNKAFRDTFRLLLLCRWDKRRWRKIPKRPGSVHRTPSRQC
Summary of the method: as §1

| SMILES | Emax (M2 muscarinic receptor) [%] | M2 Activity (M2 muscarinic receptor) | Emax (M3 muscarinic receptor) [%] | M3 Activity (M3 muscarinic receptor) | Emax (M4 muscarinic receptor) [%] | M4 Activity (M4 muscarinic receptor) | Emax (M1 muscarinic receptor) [%] | M1 Activity (M1 muscarinic receptor) |
| --- | --- | --- | --- | --- | --- | --- | --- | --- |
| COc1ccc(C(F)(F)F)cc1C1CCN(C2C[C@H]3CC[C@H]2C3)CC1 (some centres unmarked) [Compound 296] | < 25 | + (activity was measured to be greater than 5.0 μM) | < 25 | + (activity was measured to be greater than 5.0 μM) | 25 to 100 | ++ (activity was measured to be from 1.0 μM to 5.0 μM) | 25 to 100 | ++ (activity was measured to be from 1.0 μM to 5.0 μM) |
| CCOC(=O)N1CCC(CN2CCC(c3cc(-c4ccc5c(c4)OCO5)ccc3OC)CC2)CC1 [Compound 297] | < 25 | + (activity was measured to be greater than 5.0 μM) | < 25 | + (activity was measured to be greater than 5.0 μM) | 25 to 100 | ++ (activity was measured to be from 1.0 μM to 5.0 μM) | 25 to 100 | ++ (activity was measured to be from 1.0 μM to 5.0 μM) |
| CCOC(=O)N1CCC(CN2CCC(c3cc(-c4ccc(C(=O)NC)c(Cl)c4)ccc3OC)CC2)CC1 [Compound 298] | < 25 | + (activity was measured to be greater than 5.0 μM) | < 25 | + (activity was measured to be greater than 5.0 μM) | 25 to 100 | +++ (activity was measured to be less than 1.0 μM) | 25 to 100 | ++ (activity was measured to be from 1.0 μM to 5.0 μM) |
| COc1ccc(Cl)cc1C1CCN(C2(C)CCCCC2)CC1 [Compound 300, 4-(5-chloro-2-methoxyphenyl)-1-(1-methylcyclo-hexyl)piperidine] | 25 to 100 | ++ (activity was measured to be from 1.0 μM to 5.0 μM) | < 25 | + (activity was measured to be greater than 5.0 μM) | 25 to 100 | +++ (activity was measured to be less than 1.0 μM) | 25 to 100 | ++ (activity was measured to be from 1.0 μM to 5.0 μM) |
| Cc1ccccc1-c1ccccc1C1CCN([C@H]2C[C@H]3CC[C@H]2C3)CC1 [Compound 302] | < 25 | + (activity was measured to be greater than 5.0 μM) | < 25 | + (activity was measured to be greater than 5.0 μM) | 25 to 100 | ++ (activity was measured to be from 1.0 μM to 5.0 μM) | < 25 | + (activity was measured to be greater than 5.0 μM) |
| COc1c(F)cc(F)cc1C1CCN(C2CCOCC2)CC1 [Compound 305] | < 25 | + (activity was measured to be greater than 5.0 μM) | < 25 | + (activity was measured to be greater than 5.0 μM) | 25 to 100 | ++ (activity was measured to be from 1.0 μM to 5.0 μM) | < 25 | + (activity was measured to be greater than 5.0 μM) |
| CCOC(=O)N1CCC(CN2CCC(c3ccccc3C)CC2)CC1 [Compound 306] | 25 to 100 | +++ (activity was measured to be less than 1.0 μM) | 25 to 100 | +++ (activity was measured to be less than 1.0 μM) | 25 to 100 | +++ (activity was measured to be less than 1.0 μM) | 25 to 100 | +++ (activity was measured to be less than 1.0 μM) |
| COc1ccccc1C1CCN(CC2CC3C=CC2C3)CC1 (centres unmarked) [Compound 307] | 25 to 100 | + (activity was measured to be greater than 5.0 μM) | – | + (activity was measured to be greater than 5.0 μM) | 25 to 100 | +++ (activity was measured to be less than 1.0 μM) | 25 to 100 | ++ (activity was measured to be from 1.0 μM to 5.0 μM) |
| COc1ccc(Cl)cc1C1(F)CCN([C@@H]2C[C@H]3CC[C@H]2C3)CC1 [Compound 309] | 25 to 100 | ++ (activity was measured to be from 1.0 μM to 5.0 μM) | < 25 | + (activity was measured to be greater than 5.0 μM) | 25 to 100 | ++ (activity was measured to be from 1.0 μM to 5.0 μM) | 25 to 100 | + (activity was measured to be greater than 5.0 μM) |
| COc1cc(F)c(F)c(C2CCN(C3CC4CCC(C4)C3)CC2)c1 (centres unmarked) [Compound 310] | < 25 | + (activity was measured to be greater than 5.0 μM) | < 25 | + (activity was measured to be greater than 5.0 μM) | 25 to 100 | +++ (activity was measured to be less than 1.0 μM) | < 25 | + (activity was measured to be greater than 5.0 μM) |
| COc1c(F)cc(F)cc1C1CCN(C2CC3CCC(C3)C2)CC1 (centres unmarked) [Compound 311] | < 25 | + (activity was measured to be greater than 5.0 μM) | < 25 | + (activity was measured to be greater than 5.0 μM) | 25 to 100 | +++ (activity was measured to be less than 1.0 μM) | < 25 | + (activity was measured to be greater than 5.0 μM) |
| COc1ccc(-c2ccc(C(=O)Nc3nccs3)cc2)cc1C1CCN(C2CC3CCC(C3)C2)CC1 (centres unmarked) [Compound 313] | < 25 | + (activity was measured to be greater than 5.0 μM) | < 25 | + (activity was measured to be greater than 5.0 μM) | < 25 | + (activity was measured to be greater than 5.0 μM) | < 25 | + (activity was measured to be greater than 5.0 μM) |
